Where two headings read alike, the source gives them in different places.
Assays:
[1] = tested on: A. baumannii ATCC 17978 native ADC KO, OXA-24 pWH1266; experiment: Antimicrobial susceptibility testing, broth microdilution; format: cell-based; settings: Acinetobacter baumannii
Method: The inhibitory effects of both compounds were tested against ADC-33 and OXA-24/-40 in A. baumannii, their native host. ATCC 17978, with its intrinsic chromosomal ADC knocked out (intrinsic OXA still present), was used in these experiments. In this isolate, the ADC MICs were not lowered by the inhibitors as much as they were against the E. coli background (Table 4).
pWH1266 is a vector that replicates in A. baumannii, and the […] pWH1266 construct was generated as follows. The TEM gene was removed using inverse PCR, and an Xba1 site was engineered into the vector. blaOXA-24/40 and its upstream XerC/XerD were amplified from strain NM55. The amplified gene was cloned into the Xba1 site of the altered pWH1266 vector. The construct was confirmed using PCR and sequencing. Both blaADC-33 pQF1266 and […] pWH1266 were then expressed in A. baumannii ATCC 17978 that had the intrinsic chromosomal ADC gene knocked out.
The chromosomal blaADC-51 gene in ATCC 17978 was deleted and replaced with an apramycin resistance cassette using the recombineering method described by Tucker et al.. Primers used for this deletion were: Del AmpC-apra.For: […]; and Del AmpC-apra.Rev: […]. The correct deletion mutant was confirmed using PCR and sequencing.
Testing of susceptibility to standard antibiotics was performed with broth microdilution according to CLSI guidelines. MICs for CAZ, CTX, FEP, and IMI were determined using cation-adjusted Mueller–Hinton broth according to CLSI methods, and CR167 or 6b was used at a fixed concentration of 10 mg/L. All MICs were interpreted according to the 2022 Clinical and Laboratory Standards Institute (CLSI) guidelines.

OXA-24/40 = target: T1, OXA-24/40 (Acinetobacter baumannii, UniProt Q8RLA6); experiment: Ki determination, competition assay with nitrocefin (NCF) as substrate; format: biochemical
T1 construct: made in house
Method: (§1) The affinity of CR167 for the two different β-lactamases was measured in competition assays using nitrocefin (NCF) as the indicator substrate (Table 1).
(§2) The binding affinity of each of the compounds 6a–e with ADC-33 and with OXA-24/40 was determined after 5 min pre-incubation of boronic acid and the enzyme, using competition assays with nitrocefin (NCF) as the substrate. […] These compounds differ in three structural characteristics: stereochemistry, the presence of the m-carboxylate on the aromatic ring, and the small chain linked to the chiral center. […] Finally, the smaller the steric hindrance is at the R1 position, the higher the affinity is.
(§3) Ki values were determined by using nitrocefin as a reporter substrate and treating the compounds as competitive inhibitors. Steady-state kinetic parameters were determined by combining pure enzyme with nitrocefin in 50 mM NaH2PO4; 25 mM NaHCO3, pH 7.4 (for OXA-24/40); or 50 mM NaH2PO4, pH 7.4 (for ADC-33), at room temperature. Changes in absorbance were measured on a Cary 60 UV−Vis spectrophotometer (Agilent Technologies) and converted to velocity using the change-in-extinction coefficient specific to nitrocefin (ε = 17,400 M^−1·cm^−1 at 482 nm). Initial velocities were fit to the Michaelis–Menten equation, yielding kcat and Km values. Next, the enzyme was challenged with a constant concentration of nitrocefin and increasing amounts of inhibitor. IC50 values were used to calculate Ki values using the Cheng–Prusoff equation as previously described. Specifically, the measurements of the initial velocities were performed with the addition of 100 µM NCF after a 5 min pre-incubation of the enzyme (2 nM) with increasing concentration of the inhibitor [37]. To determine the average velocities (v0), data from three experiments were fit to Equation (1): (1) v0=vu −{vu[I]/IC 50+[I]} where vu represents the NCF uninhibited velocity and IC50 represents the inhibitor concentration that results in a 50% reduction in vu. The Ki value was corrected for the NCF affinity (Km values for both OXA-24/40 and ADC-33) with the Cheng–Prusoff equation (Equation (2)): (2) Ki=IC50/(1+[NCF]/KmNCF)

ADC-33 = ADC-33 (Acinetobacter baumannii, UniProt A7Y407); experiment: as above; format: biochemical; settings: for Ki: corrected for NCF affinity, 5 min pre-incubation, pH 7.4
Method: as §1, §2, §3

[2] = tested on: E. coli DH10B pBCSK, blaADC-7; design: method as in PMID 29144724; settings: with CR167; cited from earlier work
ADC-7 = target: ADC-7; design: method as in PMID 29144724; settings: cited from earlier work
KPC-2 = tested on: KPC-2; design: method as in PMID 26729496; settings: cited from earlier work
class C β-lactamase AmpC = target: class C β-lactamase AmpC; design: method as in PMID 20945905, PMID 23043117; settings: AmpC from E. coli; cited from earlier work
SHV-1 = settings: cited from earlier work
[3] = ATCC17978, read-out: MIC of CAZ with BLI
[4] = ATCC17978, read-out: MIC of CTX with BLI
[5] = ATCC17978, read-out: MIC of FEP with BLI
[6] = ATCC17978, read-out: MIC of IMI with BLI

T1 sequence (Q8RLA6 22-275): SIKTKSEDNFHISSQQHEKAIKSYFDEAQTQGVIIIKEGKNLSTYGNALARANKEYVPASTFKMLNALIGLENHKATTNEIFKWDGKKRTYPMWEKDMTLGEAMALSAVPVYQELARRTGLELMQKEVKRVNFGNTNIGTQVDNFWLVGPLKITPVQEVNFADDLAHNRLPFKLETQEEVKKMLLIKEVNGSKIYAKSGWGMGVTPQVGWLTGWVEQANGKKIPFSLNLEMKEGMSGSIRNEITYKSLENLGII

Structure (SMILES) | MIC [1, 3] | MIC [1, 4] | MIC [1, 5] | MIC [1, 6] | Ki (OXA-24/40) | fold higher affinity than compound 6a for OXA-24/40 (OXA-24/40; ratio of Ki, 6b vs 6a) | fold more potent than 6d, OXA-24/40 (OXA-24/40; ratio of Ki, 6b vs 6d) | Ki (ADC-33) | fold more potent than 6d, ADC-33 (ADC-33; ratio of Ki, 6b vs 6d) | MIC for CAZ with CR167 [2] | Ki (ADC-7) | IC50 (KPC-2) | Ki (class C β-lactamase AmpC) | IC50 (SHV-1)
C[C@@H](NS(=O)(=O)Cc1cccc(C(=O)O)c1)B(O)O [6b] | 8 µg/mL | 16 µg/mL | 32 µg/mL | 128 µg/mL | 5200 ± 500 nM | 120 fold | 60 fold | 790 ± 200 nM | 28 fold |  |  |  |  | 
O=C(O)c1cccc(CS(=O)(=O)NCB(O)O)c1 [CR167] | 8 µg/mL | 16 µg/mL | 32 µg/mL | 128 µg/mL | 4400 ± 500 nM |  |  | 57 ± 15 nM |  | 1 µg/mL | 160 nM | 200 nM | 1.3 nM | 430 nM

— publication PMC10135033, “Sulfonamidoboronic Acids as “Cross-Class” Inhibitors of an Expanded-Spectrum Class C Cephalosporinase, ADC-33, and a Class D Carbapenemase, OXA-24/40: Strategic Compound Design to Combat Resistance in Acinetobacter baumannii” (Antibiotics, 2023)
